Test results as given in US20120125325A1, “THE USE OF AMLEXANOX IN THE THERAPY OF NEUTROPHIL-DRIVEN DISEASES” (priority 2009, published 2012).

Columns and labels:
[1] = test system: LPS-induced neutrophilia in the airways of mice; assay: LPS-induced airway neutrophilia in mice, inhaled (intra-tracheal) dosing (Example 2); settings: for piloerection following LPS aerosol exposure: also seen in vehicle treated animals; for tolerance of dosing: mouse, in vivo
Experimental: • n=8 • Group 1—sham • Group 2—vehicle (10% DMSO) • Group 3—amlexanox (0.3 mg/mL) • Group 4—amlexanox (3 mg/mL) • Group 5—amlexanox (10 mg/mL) • Group 6—amlexanox (15 mg/mL) • Group 7—salbutamol (1 mg/mL) • Group 8—amlexanox (0.3 mg/mL)+salbutamol (1 mg/mL) • Group 9—amlexanox (3 mg/mL)+salbutamol (1 mg/mL) • Group 10—dexamethasone (1.0 mg/mL) • Group 11—fluticasone (1.0 mg/mL) • N.B. All test compounds to be administered by intra-tracheal dosing (using a PennCentury device) 1 hour before endotoxin exposure.
Non-fasted mice were weighed, individually identified on the tail with a permanent marker and administered by intra tracheal administration with doses of either vehicle, amlexanox, fluticasone, dexamethasone or salbutamol at time point T=−1 with respect to the start of LPS treatment (see above for group details). At T=0, mice were placed into an exposure chamber and exposed to LPS. The LPS was prepared in a solution of 0.5 mg/ml and aerosolised using a De Vibliss ultrasonic nebuliser 2000, so that 7 ml of the solution was aerosolised during the 30 min exposure period.
8 hours after LPS challenge the trachea was cannulated and BALF extracted. The procedure for this involved infusing and withdrawing 1 mL of PBS into the lungs via a tracheal catheter. This procedure was repeated to give a yield of approximately 2 mL lavage fluid. The BALF was aliquoted for analysis of neutrophilia and the remaining BALF stored at −80° C. for future cytokine analysis if required.
Total and differential white cell counts in the BAL fluid samples were measured using a Neubaur haemocytometer. Cytospin smears of the BAL fluid samples were prepared by centrifugation at 1200 rpm for 1 min at room temperature and stained using a DiffQuik stain system (Dade Behring).
Cells were counted blind using oil immersion microscopy.
Data were reported as total and differential number of cells per mL of BALF, mean±S.E.M. (standard error of the mean).
Inter-group deviations were statistically analysed by a one-way analysis of variance (ANOVA). In the case of significant difference in the mean values among the different levels of treatment, comparisons versus the vehicle group were carried out using the Dunnett's test. In case the equal variance test fails, a Kruskal-Wallis one-way analysis of variance on ranks followed by a Dunn's test were used. p<0.05 will be considered statistically significant.
Test compounds were administered in a dose volume of 20 μL using a FMJ-250 PennCentury device for intra-tracheal dosing.

[2] = test system: LPS-induced neutrophilia in the airways of mice; assay: LPS-induced airway neutrophilia in mice, oral amlexanox (Example 1); type: in vivo; settings: amlexanox 1-30 mg/kg p.o. 1 hour before LPS aerosol, BALF 8 hours after LPS
Experimental: • n=8 • Group 1—sham (control) • Group 2—Vehicle (10% DMSO, p.o.) • Group 3—amlexanox (1 mg/kg, p.o.) • Group 4—amlexanox (3 mg/kg, p.o.) • Group 5—amlexanox (10 mg/kg, p.o.) • Group 6—amlexanox (30 mg/kg, p.o.) • Group 7—dexamethasone (1 mg/ml) • p.o.=per orus (orally)
N.B. All test compounds were administered via oral gavage using a ball tipped stainless steel delivery cannulae or via intra-tracheal dosing (using a PennCentury devise). In all cases this was 1 hour before endotoxin exposure.
In all cases the cells were counted blind using oil immersion microscopy.
Amlexanox dosed via oral gavage was administered in a dose volume of 0.1 ml using a ball tipped stainless steel delivery cannule.

leukotriene B4 = settings: Taniguchi et al, 1990, and Kimishoto et al, 2006; cited from earlier work

SMILES	piloerection following LPS aerosol exposure ([1]; mice)	tolerance of dosing [1]	inhibition of LPS-induced neutrophilia (cells in bronchoalveolar lavage fluid, FIG. 1) [2]	inhibition of neutrophilia (total cells and neutrophils in bronchoalveolar lavage fluid, FIGS. 2 to 6) ([1]; mice, amlexanox 0.3-15 mg/mL, 20 μL intra-tracheal 1 hour before LPS aerosol, BALF 8 hours after LPS)	effect as a bronchodilator (Bronchodilator effect)	LTB4 production (leukotriene B4)
C[C@@H]1C[C@H]2[C@@H]3C[C@H](F)C4=CC(=O)C=C[C@]4(C)[C@@]3(F)[C@@H](O)C[C@]2(C)[C@@]1(O)C(=O)SCF [fluticasone]	noticeable degree of piloerection	good tolerance of dosing	–	–	–	–
CC(C)(C)NCC(O)c1ccc(O)c(CO)c1 (stereo not drawn) [salbutamol]	noticeable degree of piloerection	good tolerance of dosing	–	–	–	–
CC(C)c1ccc2oc3nc(N)c(C(=O)O)cc3c(=O)c2c1 [amlexanox]	noticeable degree of piloerection	good tolerance of dosing	effective at inhibiting LPS-induced neutrophilia	inhibits neutrophilia	little or no effect as a bronchodilator	increase LTB4 production
C[C@@H]1C[C@H]2[C@@H]3CCC4=CC(=O)C=C[C@]4(C)[C@@]3(F)[C@@H](O)C[C@]2(C)[C@@]1(O)C(=O)CO [dexamethasone]	noticeable degree of piloerection	good tolerance of dosing	–	–	–	–
